Experimental data published in patent US10183936B2, “Hepatitis B core protein allosteric modulators” (priority 2014, dated 2019).

Key:
[1] = tested on: HBV viral production in AD38 cells; test: Viral load production in AD38 cells by quantitative PCR of the HBV core sequence in supernatant; assay type: cell-based; settings: Hepatitis B virus, 144 h; 10 μM compound, 6 days at 37° C., viral load in supernatant compared against DMSO control wells; read-out: AD38 Viral Load (CpAM/DMSO %) at 10 μM
Description: (§1) Example 56: Assay Measuring Activity of Compounds on Viral Production in and on Viability of AD38 Cells
(§2) AD38 cells were then re-suspended with 10 mL of Treatment Medium and counted. Wells of a collagen coated 96-well NUNC microtiter plate were seeded at 50,000/well in 180 μL of Treatment Medium, and 20 μL of in treatment media with either 10% DMSO (Control) or a 10× solution of compound in 10% DMSO was added. Plates were incubated for 6 days at 37° C.
Viral load production was assayed by quantitative PCR of the core sequence. Briefly, 5 μL of clarified supematant was added to a PCR reaction mixture that contained forward primers HBV-f 5′-CTGTGCCTTGGGTGGCTTT-3′, Reverse primers HBV-r 5′-[…]-3′ and Fluorescent TaqMan™ Probes HBV-probe 5′-FAM/AGCTCCAAA/ZEN/[…]/3IABkFQ-3′ in Quanta Biosciences PerfeCTa® qPCR Toughmix®, and was subsequently on an Applied Biosystems VIIA7 in a final volume of 20 μL. The PCR mixture was incubated at 45° C. for 5 minutes, then 95° C. for 10 min, followed by 40 cycles of 10 seconds at 95° C. and 20 seconds at 60° C. Viral load was quantitated against known standards by using ViiA™ 7 Software. Viral load in the supematant from wells with treated cells were compared against viral load in supernatant from DMSO control wells (≥3 per plate).

AD38 cells = test: Viability of AD38 cells (Promega CellTiter-Glo) at the end of compound treatment; assay type: cell-based; settings: 10 μM compound, 6 days, luminescence normalized against DMSO control wells (controls being 100%)
Description: as §1, §2
At the end of compound treatment period cell viability was assessed using a Promega CellTiter-Glo protocol. All supernatant was removed the previously treated 96-well microtiter plate, and 50 μL Tetracycline-free treatment medium (DMEM/F12 (1:1), lx Pen/step (cat#: 30-002-CL, Mediatech, Inc), with 2% FBS, Tet-system approved (cat#: 631106, Clontech), and 1% DMSO was added back to each well. Another 50 μL of CellTiter-Glo reagent solution (Promega, G7573) was then added at room temperature and the contents mixed for 2 minutes on an orbital shaker to induce cell lysis. This was followed by incubation at room temperature for 10 minutes to stabilize the luminescent signal. The luminescence was recorded for 0.2 seconds per well on a Tecan multimode platereader (Infinite M1000 pro). The luminescent signal from each well was normalized against that of untreated (DMSO) control wells. All results were reported percent viability (with controls being 100%).

| Structure (SMILES) | activity at 10 µM [1] | AD38 Viability Normalized Result (CPAM/DMSO %) at 10 μM (AD38 cells) |
| --- | --- | --- |
| CC(=O)N1CCC(CNC(=O)c2ccc3c(c2)NC(=O)c2ccccc2S3)CC1 [Compound 1601, N-((1-acetylpiperidin-4-yl)methyl)-11-oxo-10, 11-dihydrodibenzo [b,f] [1,4] thiazepine-8-carboxamide] | 62% | 106% |
| NC(=O)c1ccc2c(c1)Sc1ccc(C(=O)NCCC3CCCCC3)cc1NC2=O [Compound 1276] | 24% | 89% |
| CC(=O)Nc1cccc(NC(=O)c2ccc3c(c2)NC(=O)c2ccccc2S3)c1 [Compound 1243] | 20% | 118% |
| O=C(NCc1cncnc1)c1ccc2c(c1)NC(=O)c1ccccc1N2Cc1ccccc1 [Compound 1482] | 46% | 98% |
| COc1cccc(CCNC(=O)c2ccc3c(c2)NC(=O)c2ccccc2S3)c1 [Compound 1124] | 80% | 99% |
| O=C(NCCC1CCC(F)(F)CC1)c1ccc2c(c1)NC(=O)c1ccccc1S2 [Compound 1216] | 1% | 125% |
| O=C(NCCc1cncs1)c1ccc2c(c1)NC(=O)c1ccccc1S2 [Compound 1247] | 8% | 103% |
| O=C1Nc2cc(S(=O)(=O)N3CCC(O)C3)ccc2Sc2ccccc21 (stereo not shown) [Compound 1433] | 82% | 94% |
| Cc1c(C(=O)NCCc2ccccn2)ccc2c1NC(=O)c1ccccc1S2 [Compound 1459] | 4% | 92% |
| COC(=O)c1ccc(CCNC(=O)c2ccc3c(c2)NC(=O)c2ccccc2S3)cc1 [Compound 1117] | 67% | 108% |
| COC(=O)c1ccc(-c2cccc(NC(=O)c3ccc4c(c3)NC(=O)c3cc(F)ccc3S4)c2)cc1 [Compound 1420, Methyl 3′-(2-fluoro-11-oxo-10, 11-dihydrodibenzo [b,f] [1,4]thiazepine-8-carboxamido)-[1,1′-biphenyl]-4-carboxylate] | 29% | 86% |
| O=C(NCc1cncs1)c1ccc2c(c1)NC(=O)c1ccccc1S2(=O)=O [Compound 1455] | 3% | 89% |
| O=C(NCc1cccnc1)c1ccc2c(c1)NC(=O)c1ccccc1S2 [Compound 1211] | 1% | 106% |
| O=C(Nc1nccs1)c1ccc2c(c1)NC(=O)c1cc(F)ccc1S2 [Compound 1329] | 62% | 109% |
| O=C1Nc2cc(S(=O)(=O)Nc3cncnc3)ccc2Sc2ccccc21 [Compound 1505] | 81% | 85% |
| O=C(NCc1ccc(-c2cncnc2)cc1)c1ccc2c(c1)NC(=O)c1ccccc1S2(=O)=O [Compound 1627] | 5% | 115% |
| O=C(NCc1ncccn1)c1ccc2c(c1)NC(=O)c1ccccc1S2 [Compound 1587] | 78% | 92% |
| O=C(NCCc1ccc(-c2cnn[nH]2)cc1)c1ccc2c(c1)NC(=O)c1ccccc1S2 [Compound 1291] | 1% | 102% |
| CN(C)CCOc1ccc(CCNC(=O)c2ccc3c(c2)NC(=O)c2ccccc2S3)cc1 [Compound 1154] | 90% | 50% |
| O=C(NCc1cncnc1)c1ccc2c(c1)NC(=O)c1cc(F)ccc1S2 [Compound 1308] | 1% | 99% |
| O=C(NCc1cccnc1)c1ccc2c(c1)NC(=O)c1ccccc1[S+]2[O-] (stereo not shown) [Compound 1427] | 7% | 85% |
| Cc1c(C(=O)NCc2cncs2)ccc2c1NC(=O)c1ccccc1S2 [Compound 1513] | 2% | 82% |

| Structure (SMILES) | activity at 10 µM [1] | AD38 Viability Normalized Result (CPAM/DMSO %) at 10 μM (AD38 cells) |
| --- | --- | --- |
| O=C(NCCc1ccc(-c2ccccc2)cc1)c1cc2c(cc1F)Sc1ccccc1C(=O)N2 [Compound 1491] | 39% | 80% |
| O=C(NCc1cnc(-c2ccccc2)nc1)c1ccc2c(c1)NC(=O)c1ccccc1S2(=O)=O [Compound 1635] | 1% | 93% |
| O=C(NCc1cccc(F)c1)c1ccc2c(c1)NC(=O)c1ccccc1S2 [Compound 1168] | 10% | 117% |
| O=C(Nc1ccc(F)cc1F)c1ccc2c(c1)NC(=O)c1cc(F)ccc1S2 [Compound 1318] | 14% | 70% |
| O=C1Nc2cc(S(=O)(=O)Nc3ccc(F)cc3)ccc2Sc2ccccc21 [Compound 1413] | 92% | 78% |
| O=C(NCc1cncs1)c1ccc2c(c1)NC(=O)c1ccccc1N2 [Compound 1602, 11-oxo-N-(thiazol-5-ylmethyl)-10, 11-dihydro-5H-dibenzo [b,e] [1,4] diazepine-8-carboxamide] | 38% | 116% |
| Cc1cccc(CCNC(=O)c2ccc3c(c2)NC(=O)c2ccccc2S3)c1 [Compound 1183] | 2% | 36% |
| O=C(Nc1ncc(-c2ccccc2)o1)c1ccc2c(c1)NC(=O)c1cc(F)ccc1S2 [Compound 1480] | 72% | 95% |
| O=C(NCCC1CCCO1)c1ccc2c(c1)NC(=O)c1ccccc1S2(=O)=O (stereo not shown) [Compound 1636] | 0% | 111% |
| O=C(NCCc1ccccc1)c1ccc2c(c1)Sc1ccccc1C(=O)N2 [Compound 1200] | 18% | 125% |
| C[C@H](O)CNC(=O)c1ccc2c(c1)NC(=O)c1ccccc1S2 [Compound 1222] | 32% | 100% |
| Cc1cc2c(cc1C(=O)NCCC1CCCCC1)NC(=O)c1ccccc1S2 [Compound 1275] | 3% | 93% |
| O=C(Nc1ncc(Cl)s1)c1ccc2c(c1)NC(=O)c1cc(F)ccc1S2 [Compound 1443] | 64% | 95% |
| Cc1ccccc1CCNC(=O)c1ccc2c(c1)NC(=O)c1ccccc1S2 [Compound 1158] | 37% | 120% |
| CN(C)S(=O)(=O)c1ccc(CCNC(=O)c2ccc3c(c2)NC(=O)c2cc(F)ccc2S3)cc1 [Compound 1384] | 4% | 79% |
| O=C(NCCc1ccccn1)c1ccc2c(c1)NC(=O)c1ccccc1N2Cc1ccccc1 [Compound 1474] | 51% | 101% |
| COc1ccc2c(c1)Sc1ccc(C(=O)NCCC3CCCCC3)cc1NC2=O [Compound 1271] | 6% | 100% |
| O=C(NCCC1CCCCC1)Nc1ccc2c(c1)NC(=O)c1ccccc1S2 [Compound 1225, 1-(2-cyclohexylethyl)-3-(11-oxo-10, 11-dihydrodibenzo [b,f] [1,4]thiazepin-8-yl) urea] | 10% | 87% |
| O=C(NCc1cccnc1)c1ccc2c(c1)NC(=O)c1ccccc1N2Cc1ccccc1 [Compound 1493] | 51% | 80% |
| Cc1nnc(CCNC(=O)c2ccc3c(c2)NC(=O)c2ccccc2S3)[nH]1 [Compound 1583] | 41% | 121% |
| O=C(NCCc1ccc(-c2ccccc2)cc1)c1ccc2c(c1)NC(=O)c1cccc(F)c1S2 [Compound 1466] | 7% | 88% |
| O=C(NCCc1ccc(-n2ccnc2)cc1)c1ccc2c(c1)NC(=O)c1ccccc1S2 [Compound 1248] | 3% | 106% |
